Columns and labels:
Assay type in all cases: in vivo
[1] = test system: Monochoria vaginalis; experiment: Test Example 2: herbicidal activity, application during weed generation in submerged conditions (symbol C); settings: Table 23; application herbicide amount 320 g/ha; grade 0-5 by criteria of Test Example 1
Outline: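 Submerged alluvial soil (4 cm) sown with mixed seed; greenhouse 25–30° C. 1–2 leaf: diluted emulsion onto water surface, preset dose. Visual score, 3 wk.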

[2] = test system: Abutilon theophrasti; experiment: Test Example 5: herbicidal effect by foliage application, plastic box (symbol M); settings: 320 g/ha, 3 weeks after application
Outline: (§1)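 Sowing in sterilized diluvial soil, 14 days' greenhouse growth at 25° C. to 30° C., then uniform small-sprayer foliar application of aqueous emulsion dilution; plants scored three weeks afterwards.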

[3] = test system: beet; experiment: Test Example 4: effect on crop by soil treatment (symbol f); settings: 320 g/ha
Outline: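 Steps: fill box with sterilized diluvial soil; sow seed spot-like; cover with ~1.5 cm soil; grow in greenhouse (25° C. to 30° C.).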

[4] = test system: Avena fatua; experiment: Test Example 4: herbicidal effect by soil treatment (symbol I); settings: 320 g/ha
Outline: (§2)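 Seeds were sown in sterilized diluvial soil, covered with about 1.5 cm of soil, and the soil surface was sprayed with a water-diluted emulsion of the compound at a predetermined rate. Plants grew in a greenhouse at 25° C. to 30° C.; effects were scored visually 3 weeks after application.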

[5] = test system: soybean; experiment: Test Example 5: effect on crop by foliage application, plastic box (symbol d); settings: 320 g/ha, 3 weeks after application
Outline: (§3)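 In a plastic box 7 cm deep filled with sterilized diluvial soil, seeds of crops and weeds such as Digitaria ciliaris, Avena fatua and Amaranthus retroflexus are sown in spots and covered with about 1.5 cm of soil before greenhouse growth at 25–30° C.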

[6] = test system: Chenopodium album; experiment: Test Example 4: herbicidal effect by soil treatment (symbol O); settings: 320 g/ha
Outline: as §2

[7] = test system: directly sowed rice plant; experiment: Test Example 3: effect on crop by foliage application, Wagner pot (symbol b); settings: application herbicide amount 320 g/ha
Outline: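 Steps: fill a 1/10000-are Wagner pot with alluvial soil; add water and mix to submerge at 0.1–0.5 cm depth; sow rice plus Echinochloa crus-galli var. crus-galli, Leptochloa chinensis and Cyperus difformis; grow in a 25–30 °C greenhouse.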

[8] = test system: Echinochloa crus-galli var. crus-galli; experiment: Test Example 5: herbicidal effect by foliage application, plastic box (symbol H); settings: 320 g/ha, 3 weeks after application
Outline: as §1

[9] = test system: rapeseed; experiment: Test Example 5: effect on crop by foliage application, plastic box (symbol g); settings: 320 g/ha, 3 weeks after application
Outline: as §3

[10] = test system: Setaria viridis; experiment: Test Example 4: herbicidal effect by soil treatment (symbol G); settings: 320 g/ha
Outline: as §2

[11] = test system: corn; experiment: Test Example 5: effect on crop by foliage application, plastic box (symbol c); settings: 320 g/ha, 3 weeks after application
Outline: as §3

[12] = test system: Apera spica-venti; experiment: Test Example 5: herbicidal effect by foliage application, plastic box (symbol L); settings: 320 g/ha, 3 weeks after application
Outline: as §1

[13] = test system: Monochoria vaginalis; experiment: Test Example 1: herbicidal activity, application before weed generation in submerged conditions (symbol C); settings: application herbicide amount 320 g/ha
Outline: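 Weeds are sown into submerged alluvial soil alongside transplanted 2.5-leaf rice, and the compound, as an emulsion diluted to a set rate, is applied onto the water before emergence. Rating on the 0–5 herbicidal-ratio scale follows 3 weeks of greenhouse growth at 25–30 °C.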

[14] = test system: Veronica persica; experiment: Test Example 4: herbicidal effect by soil treatment (symbol R); settings: 320 g/ha
Outline: as §2

SMILES: C=CCOC(=O)OC1=C(c2c(C)cc(C)cc2C)C(=O)C(CC(C)=NOC)C1 (stereo not shown) [1-146]
- Herbicidal effect grade, C: Monochoria vaginalis [1]: 4 (Herbicidal ratio of 70% or higher and lower than 90%)
- M: Abutilon theophrasti, herbicidal effect (criteria 0-5) [2]: 5 (Herbicidal ratio of 90% or more (almost completely withered))
- f: beet, effect grade on crop [3]: 3 (Herbicidal ratio of 40% or higher and lower than 70%)
- I: Avena fatua, herbicidal effect grade [4]: 4 (Herbicidal ratio of 70% or higher and lower than 90%)
- d: soybean, effect on crop (criteria 0-5) [5]: 4 (Herbicidal ratio of 70% or higher and lower than 90%)
- O: Chenopodium album, herbicidal effect grade [6]: 0 (Herbicidal ratio of 5% or lower (almost no effect))
- effect on crop b (directly sowed rice plant), grade 0-5 [7]: 5 (Herbicidal ratio of 90% or more (almost completely withered))
- H: Echinochloa crus-galli var. crus-galli, herbicidal effect (criteria 0-5) [8]: 5 (Herbicidal ratio of 90% or more (almost completely withered))
- g: rapeseed, effect on crop (criteria 0-5) [9]: 5 (Herbicidal ratio of 90% or more (almost completely withered))
- G: Setaria viridis, herbicidal effect grade [10]: 5 (Herbicidal ratio of 90% or more (almost completely withered))
- c: corn, effect on crop (criteria 0-5) [11]: 5 (Herbicidal ratio of 90% or more (almost completely withered))
- L: Apera spica-venti, herbicidal effect (criteria 0-5) [12]: 5 (Herbicidal ratio of 90% or more (almost completely withered))
- Herbicidal effect grade, C: Monochoria vaginalis [13]: 1 (Herbicidal ratio of 5% or higher and lower than 20%)
- R: Veronica persica, herbicidal effect grade [14]: 5 (Herbicidal ratio of 90% or more (almost completely withered))

SMILES: COCCOC(=O)OC1=C(c2c(C)cc(C)cc2C)C(=O)C(CC(C)=NOC)C1 (stereo not shown) [1-147]
- Herbicidal effect grade, C: Monochoria vaginalis [1]: 3 (Herbicidal ratio of 40% or higher and lower than 70%)
- M: Abutilon theophrasti, herbicidal effect (criteria 0-5) [2]: 4 (Herbicidal ratio of 70% or higher and lower than 90%)
- f: beet, effect grade on crop [3]: 0 (Herbicidal ratio of 5% or lower (almost no effect))
- I: Avena fatua, herbicidal effect grade [4]: 5 (Herbicidal ratio of 90% or more (almost completely withered))
- d: soybean, effect on crop (criteria 0-5) [5]: 3 (Herbicidal ratio of 40% or higher and lower than 70%)
- O: Chenopodium album, herbicidal effect grade [6]: 0 (Herbicidal ratio of 5% or lower (almost no effect))
- effect on crop b (directly sowed rice plant), grade 0-5 [7]: 5 (Herbicidal ratio of 90% or more (almost completely withered))
- H: Echinochloa crus-galli var. crus-galli, herbicidal effect (criteria 0-5) [8]: 5 (Herbicidal ratio of 90% or more (almost completely withered))
- g: rapeseed, effect on crop (criteria 0-5) [9]: 4 (Herbicidal ratio of 70% or higher and lower than 90%)
- G: Setaria viridis, herbicidal effect grade [10]: 5 (Herbicidal ratio of 90% or more (almost completely withered))
- c: corn, effect on crop (criteria 0-5) [11]: 5 (Herbicidal ratio of 90% or more (almost completely withered))
- L: Apera spica-venti, herbicidal effect (criteria 0-5) [12]: 5 (Herbicidal ratio of 90% or more (almost completely withered))
- Herbicidal effect grade, C: Monochoria vaginalis [13]: 1 (Herbicidal ratio of 5% or higher and lower than 20%)
- R: Veronica persica, herbicidal effect grade [14]: 3 (Herbicidal ratio of 40% or higher and lower than 70%)

SMILES: CON=C(C)CC1CC(OC(=O)c2ccc(C(F)(F)F)cc2)=C(c2c(C)cc(C)cc2C)C1=O (stereo not shown) [1-149]
- Herbicidal effect grade, C: Monochoria vaginalis [1]: 3 (Herbicidal ratio of 40% or higher and lower than 70%)
- M: Abutilon theophrasti, herbicidal effect (criteria 0-5) [2]: 4 (Herbicidal ratio of 70% or higher and lower than 90%)
- f: beet, effect grade on crop [3]: 0 (Herbicidal ratio of 5% or lower (almost no effect))
- I: Avena fatua, herbicidal effect grade [4]: 0 (Herbicidal ratio of 5% or lower (almost no effect))
- d: soybean, effect on crop (criteria 0-5) [5]: 2 (Herbicidal ratio of 20% or higher and lower than 40%)
- O: Chenopodium album, herbicidal effect grade [6]: 0 (Herbicidal ratio of 5% or lower (almost no effect))
- effect on crop b (directly sowed rice plant), grade 0-5 [7]: 5 (Herbicidal ratio of 90% or more (almost completely withered))
- H: Echinochloa crus-galli var. crus-galli, herbicidal effect (criteria 0-5) [8]: 5 (Herbicidal ratio of 90% or more (almost completely withered))
- g: rapeseed, effect on crop (criteria 0-5) [9]: 4 (Herbicidal ratio of 70% or higher and lower than 90%)
- G: Setaria viridis, herbicidal effect grade [10]: 5 (Herbicidal ratio of 90% or more (almost completely withered))
- c: corn, effect on crop (criteria 0-5) [11]: 4 (Herbicidal ratio of 70% or higher and lower than 90%)
- L: Apera spica-venti, herbicidal effect (criteria 0-5) [12]: 5 (Herbicidal ratio of 90% or more (almost completely withered))
- Herbicidal effect grade, C: Monochoria vaginalis [13]: 1 (Herbicidal ratio of 5% or higher and lower than 20%)
- R: Veronica persica, herbicidal effect grade [14]: 0 (Herbicidal ratio of 5% or lower (almost no effect))

SMILES: CON=C(C)CC1CC(OC(=O)N2CCCC2)=C(c2c(C)cc(C)cc2C)C1=O (stereo not shown) [1-150]
- Herbicidal effect grade, C: Monochoria vaginalis [1]: 1 (Herbicidal ratio of 5% or higher and lower than 20%)
- M: Abutilon theophrasti, herbicidal effect (criteria 0-5) [2]: 3 (Herbicidal ratio of 40% or higher and lower than 70%)
- f: beet, effect grade on crop [3]: 0 (Herbicidal ratio of 5% or lower (almost no effect))
- I: Avena fatua, herbicidal effect grade [4]: 2 (Herbicidal ratio of 20% or higher and lower than 40%)
- d: soybean, effect on crop (criteria 0-5) [5]: 0 (Herbicidal ratio of 5% or lower (almost no effect))
- O: Chenopodium album, herbicidal effect grade [6]: 0 (Herbicidal ratio of 5% or lower (almost no effect))
- effect on crop b (directly sowed rice plant), grade 0-5 [7]: 5 (Herbicidal ratio of 90% or more (almost completely withered))
- H: Echinochloa crus-galli var. crus-galli, herbicidal effect (criteria 0-5) [8]: 5 (Herbicidal ratio of 90% or more (almost completely withered))
- g: rapeseed, effect on crop (criteria 0-5) [9]: 4 (Herbicidal ratio of 70% or higher and lower than 90%)
- G: Setaria viridis, herbicidal effect grade [10]: 0 (Herbicidal ratio of 5% or lower (almost no effect))
- c: corn, effect on crop (criteria 0-5) [11]: 4 (Herbicidal ratio of 70% or higher and lower than 90%)
- L: Apera spica-venti, herbicidal effect (criteria 0-5) [12]: 5 (Herbicidal ratio of 90% or more (almost completely withered))
- Herbicidal effect grade, C: Monochoria vaginalis [13]: 0 (Herbicidal ratio of 5% or lower (almost no effect))
- R: Veronica persica, herbicidal effect grade [14]: 0 (Herbicidal ratio of 5% or lower (almost no effect))

SMILES: CON=C(C)CC1CC(OC(=O)N2CCN(C)CC2)=C(c2c(C)cc(C)cc2C)C1=O (stereo not shown) [1-152]
- Herbicidal effect grade, C: Monochoria vaginalis [1]: 0 (Herbicidal ratio of 5% or lower (almost no effect))
- M: Abutilon theophrasti, herbicidal effect (criteria 0-5) [2]: 4 (Herbicidal ratio of 70% or higher and lower than 90%)
- f: beet, effect grade on crop [3]: 0 (Herbicidal ratio of 5% or lower (almost no effect))
- I: Avena fatua, herbicidal effect grade [4]: 0 (Herbicidal ratio of 5% or lower (almost no effect))
- d: soybean, effect on crop (criteria 0-5) [5]: 1 (Herbicidal ratio of 5% or higher and lower than 20%)
- O: Chenopodium album, herbicidal effect grade [6]: 0 (Herbicidal ratio of 5% or lower (almost no effect))
- effect on crop b (directly sowed rice plant), grade 0-5 [7]: 5 (Herbicidal ratio of 90% or more (almost completely withered))
- H: Echinochloa crus-galli var. crus-galli, herbicidal effect (criteria 0-5) [8]: 5 (Herbicidal ratio of 90% or more (almost completely withered))
- g: rapeseed, effect on crop (criteria 0-5) [9]: 4 (Herbicidal ratio of 70% or higher and lower than 90%)
- G: Setaria viridis, herbicidal effect grade [10]: 0 (Herbicidal ratio of 5% or lower (almost no effect))
- c: corn, effect on crop (criteria 0-5) [11]: 2 (Herbicidal ratio of 20% or higher and lower than 40%)
- L: Apera spica-venti, herbicidal effect (criteria 0-5) [12]: 5 (Herbicidal ratio of 90% or more (almost completely withered))
- Herbicidal effect grade, C: Monochoria vaginalis [13]: 0 (Herbicidal ratio of 5% or lower (almost no effect))
- R: Veronica persica, herbicidal effect grade [14]: 0 (Herbicidal ratio of 5% or lower (almost no effect))

Source: patent US11000033B2, “Ketone or oxime compound, and herbicide” (NISSAN CHEMICAL CORPORATION, priority 2014, dated 2021)
